What was measured:
[1] = test system: patients with lung diseases including COPD; test: Comparison of inhaled salts of pyruvate, 5 ml of 5 mM solution (Table II); settings: for Increased in FEV-1%: 5 ml of 5 mM solution in saline; for Increased in FEV-1% / Percentage Increase in SaO2 over baseline / Percentage increase of Nitric Oxide over baseline / Relief of congestion, coughing and lung tightness / Irritation: inhaled; for Percentage Increase in SaO2 over baseline / Percentage increase of Nitric Oxide over baseline / Relief of congestion, coughing and lung tightness / Overall Rating 1-10 / Irritation: 5 ml of 5 mM solution; for Overall Rating 1-10: 1 most negative, 10 best
[2] = test system: patients with lung diseases including COPD; test: Comparison of inhaled salts of pyruvate, 5 ml of 0.5 mM solution (Table I); settings: for Increased in FEV-1% lung function: 5 ml of 0.5 mM solution in physiological saline; for Increased in FEV-1% lung function / Percentage Increase in SaO2 over baseline / Percentage decrease or increase of Nitric Oxide over baseline / Relief of congestion, coughing and lung tightness / Irritation: inhaled; for Percentage Increase in SaO2 over baseline / Percentage decrease or increase of Nitric Oxide over baseline / Relief of congestion, coughing and lung tightness / Overall Rating 1-10 / Irritation: 5 ml of 0.5 mM solution; for Overall Rating 1-10: 1 most negative, 10 best; for FEV1: 5 mls of a 0.5 mM pyruvate inhalation solution in COPD and asthmatic patients
Experimental: All previous studies using pyruvate to treat Allergic Rhinitis, Asthmatic and COPD patients used only the sodium salt form of pyruvic acid in saline. The drug products that were tested in the six Phase I/II clinical trial were differing concentrations of sodium pyruvate dissolved in 0.9% sodium chloride solution (Saline). These drug products contained 0.5 mM, 1.5 mM, or 5.0 mM of sodium pyruvate in physiological saline. They were administered to normal volunteers and COPD and asthmatics by inhalation therapy. […] Various sodium pyruvate solutions were evaluated in the lungs for their ability to enhance FEV1 values and reduce coughing, and lung tightness.
The amount of the salts delivered in the 5 ml's of the 0.5 mM pyruvate solutions were compared to the amounts of the salts in 5 ml's of human blood. […] When ethyl pyruvate reacts with oxygen radical like hydrogen peroxide, it is converted to ethane and alcohol and Co2 and acetate. Ethane and alcohol are lung irritants.
This formula can also be made by adding 3% calcium phosphate or dicalcium phosphate to the standard 0.5 mM to 30 mM sodium pyruvate saline solution see Table I.

[3] = test system: patients with sinus & lung diseases including IPF and COPD; test: Salts of pyruvate as 20 mM nasal sprays (Table IX); settings: for Overall Rating 1-10: 20 mM (0.22%) nasal spray, 1 most negative, 10 best
Description: They never tested the individual salts for their ability to reduce inflammation or increase lung functions.

[4] = test system: patients with chronic Hypoxemia; test: Various drugs with or without pre-inhaled pyruvate formulas (Table VII); assay type: in vivo, human; set-up: SaO2 Measurements taken after medication and compared to baseline / SaO2 Measurements taken after taking the medication and compared to baseline: unit not given here
Experimental: With the hundreds of patients tested in our various clinical trials, data was gathered as to the type of medications the patients used and the frequency of their use over a six-month period. The patients were asked to rate their medications form 1-10 with 1 being the most irritating with the most side effects and 10 being the best with no irritation and no side effects. In these clinical trials, various drugs were evaluated for irritation, mucus production, and efficacy in humans. The drugs were all evaluated using their current formulations and concentrations against the same formulations with the addition of sodium pyruvate, with the calcium, phosphate and magnesium formula given just prior to the use of their medications. They were instructed to 20 inhale this formula just prior to the use of their medications and to evaluate the effect of their medications on the 1-10 scale.
Patients on the various inhaled medications whether inhaled or taken orally or by IV infusion, were enlisted in the evaluation of the inhaled sodium pyruvate calcium, phosphate and magnesium formula. The patients were tested for their SaO2 levels and those that had SaO2 levels below 92% were asked to enlist in the study. […] After the SaO2 levels were determined prior to and one hour after taking their medications, the patients returned the following day, SaO2 measurements were taken one hour prior to taking their medications. The patients were then handed the hypotonic inhalation formula of sodium pyruvate with calcium, phosphate magnesium formula and instructed to inhale it one hour before taking their medications, SaO2 measurements were then taken one hour after taking their medications.

[5] = 20 mM (0.22%) nasal spray in 0.9% sodium chloride

Compound	Increased in FEV-1% [1] [%]	Percentage Increase in SaO2 over baseline [1]	Percentage increase of Nitric Oxide over baseline [1] [%]	Relief of congestion, coughing and lung tightness [1]	Overall Rating 1-10 [1]	Increased in FEV-1% lung function [2] [%]	Percentage Increase in SaO2 over baseline [2]	Percentage decrease or increase of Nitric Oxide over baseline [2]	Relief of congestion, coughing and lung tightness [2]	Overall Rating 1-10 [2]	Overall Rating 1-10 [3]	Irritation [1]	Irritation [2]	FEV1 [2]	Increased in FEV-1% ([3]; in vivo) [%]	Irritation ([3]; in vivo)	Percentage Increase in SaO2 over baseline ([3]; in vivo)	Percentage increase of Nitric Oxide over baseline ([3]; in vivo) [%]	Relief of congestion, coughing and lung tightness ([3]; in vivo)	other results
aluminum pyruvate	0	No	15.0	1	4	0	No	+8.0%	1	3	1	–	–	–	–	–	–	–	–	reduction of nitric oxide ([2]; 5 mls of a 0.5 mM inhalation solution): did not reduce nitric oxide; Increased in FEV-1% [3, 5]: 0.0%; Percentage Increase in SaO2 over baseline [3, 5]: No; Percentage increase of Nitric Oxide over baseline [3, 5]: 00.0%; Relief of congestion, coughing and lung tightness [3, 5]: 1
calcium pyruvate	1.0	1%	17.0	5	7	10.0	no	−18%	5	7	7	None	None	10%	7.0	None	1%	17.0	5	–
CC(=O)N[C@@H](CS)C(=O)O [N-acetylcysteine, reference compound]	2	0%	1	7	7	6	0%	0%	8	7	–	yes	None	–	–	–	–	–	–	SaO2 Measurements taken after medication and compared to baseline ([4]; Drug in commercial formula taken in prescribed way): +1; SaO2 measurements taken after taking medication and compared to baseline ([4]; Drug in commercial formula with Pre-inhaled sodium pyruvate, calcium & phosphate & magnesium): +4; SaO2 Measurements taken after taking the medication and compared to baseline ([4]; Drug in commercial formula with pre-inhaled sodium pyruvate saline only): 0; Lung functions (rating 1-10) ([4]; Drugs commercial formula given as instructed in the package): 4; Lung functions (rating 1-10) ([4]; Drugs in commercial formula Pre-inhaled sodium pyruvate & calcium & phosphate & magnesium): 8; Lung functions (rating 1-10) ([4]; Drugs in commercial formula with pre-inhaled sodium pyruvate in saline only): 6
CC(=O)C(=O)[O-].[K+] [Potassium, potassium pyruvate]	2.1	no	25.0	5	7	8.0	no	−14%	5	7	6	None	None	lower FEV1 results	6.1	None	no	10.0	5	–

Source: US11628186B2, “Method and composition for the reduction of viral replication, duration and spread of the COVID-19 and the flu” (priority 2017, dated 2023)
